Assay results as given in patent US12440471B2, “Compositions and methods for the treatment of bronchopulmonary dysplasia (BPD) and BPD-associated pulmonary hypertension” (AyuVis Research, Inc., priority 2021, dated 2025).
Where two headings read alike, the source gives them in different places.

Tests used:
Type in all cases: in vivo
mice or rat pups = test: Safety profile of AVR-48 in mice or rat pups (IV, SC, IN; MTD/NOAEL)
Procedure: (§1) Safety Profile of AVR-48. To assess the safety of AVR-48 (compound 8), two doses of intravenous (IV) slow bolus injections or subcutaneous (SC) injections or intranasal (IN) instillation were given to mice or rat pups (postnatal day 3-5 or P3-P5), >6 h apart. The total daily doses were up to 100 mg/kg/day IV, and up to 150 mg/kg/day SC, for 3 consecutive days. […] There was no change in any of the hematological or clinical chemistry parameters. Signs of discoloration, swelling, and macroscopic and microscopic signs of local irritation occurred at the site of administration in all treatment groups and were attributed to the administration vehicle (formulation of 10% DMSO, 20% Tetraglycol, and 20% PEG 400 in sterile water). […] Based on the parameters monitored in this study, the maximum tolerated dose (MTD) and no-observed-adverse-effect level (NOAEL) were considered to be 100 mg/kg/day via IV and 150 mg/kg/day via SC routes of dosing.
(§2) Animals. C57BL/6J mice were purchased from The Jackson Laboratory (Bar Harbor, ME, USA) and were maintained in a breeding colony at Drexel University, Philadelphia, PA, USA. Animal procedures were performed in accordance with the NIH Guide for the Care and Use of Laboratory Animals and were approved by the Institutional Animal Care and Use Committee (IACUC) of Drexel University Philadelphia, PA (Protocol No. 20706). Neonatal rat pups born from female pregnant Sprague Dawley Crl:CD (SD) rats (Charles River Laboratories, St-Constant, QC, Canada) were used for the toxicology and PK studies to evaluate safety, determine the maximum tolerated dose (MTD) and the PK profile of AVR-48. A minimum 6-day acclimation period was allowed between receipt of the animals and the start of treatment to accustom the rats to the laboratory environment. All rat studies were approved by the IACUC of ITR Laboratories, Canada (Protocol No. 74691).
(§3) Formulation of AVR-48 for efficacy and toxicokinetic studies. For the mouse dose response efficacy studies, AVR-48 was reconstituted in 0.9% sterile normal saline to give a final dose concentration of […] as a colorless solution, and injected IP (30 μl) on P2 and P4. The PLGA encapsulated AVR-48 or the GFP-tagged analog was resuspended in deionized sterile water to make a nanosuspension with final dose concentration of 0.025, 0.05 and 0.11 mg/kg/drop. The surfactant Curosurf® (Cheisi Parma, Italy), available commercially, was delivered IN at a volume of 3 μl per nostril, on P2 and P4. For the toxicokinetic study of AVR-48 in rat pups, a formulation of 10% DMSO, 20% tetraglycol, 20% PEG 400, and 50% sterile water was made fresh before administration (Shah, Das et al. 2021).
(§4) Statistical Analysis. All statistical analyses were performed using Graph Pad Prism version 7.0 (GraphPad Software, San Diego, CA). The data are expressed as the mean±SEM with n=5 to 7 mice in each group. Groups were compared with the two-tailed unpaired t-test and one- or two-way analysis of variance (ANOVA), as appropriate. P<0.05 was considered statistically significant. For the toxicology and PK study, a generalized Analysis of Variance/Covariance (ANOVA/ANCOVA) test was performed on the numerical data (3 or more animals/groups) on the study as follows: An automatic transformation was used to analyze the data for homogeneity of variance using Levene's test. Parametric and non-parametric trends were analyzed using the Williams and the Shirley-Williams tests, respectively. Homogeneous data was analyzed using the ANOVA/ANCOVA, and the significance of intergroup differences between the control and test item-treated groups was analyzed using Dunnett's test. Heterogeneous data was analyzed using Kruskal-Wallis test and the significance of intergroup differences between the control and test item-treated groups was assessed using a nonparametric Dunnett's test. All data are reported as ±SEM. […]

[1] = as above; conditions: C57BL/6J (mouse), Sprague Dawley Crl:CD (rat), mouse, rat, in vivo; for MTD at 3 days: read-out: maximum tolerated dose (MTD); for NOAEL at 3 days: read-out: no-observed-adverse-effect level (NOAEL)
Procedure: as §1, §2, §3, §4

[2] = system: hyperoxia-exposed BPD mouse model; test: BPD mouse model: western blot of lung homogenates
Procedure: Western Blot Analysis. Western blot analyses for TLR4 (Cell Signaling Technology, Danvers, MA; 1:1000), Ang2 (1:500; Sigma, St. Louis, MO), TGFβ, NFkB, TNFα, IL-10, IL-1(3, IL-4, Vegf, eNos, Vegf-D, BmpRII, Vinculin (1:500; SantaCruz, Dallas, TX), were performed, as previously described (Leary, Das et al. 2019), by loading 30 μg of lung protein, followed by immunoblotting with the above antibodies and visualizing with Odyssey infrared imaging system (LI-COR Biosciences, Lincoln, NE). Densitometric quantification was done using ImageJ after normalizing with Vinculin, the loading control housekeeping protein.

pre-term lamb BPD model = test: Pre-term lamb BPD model: lung histopathology and radial alveolar count
From the text: Detailed methods have been published previously by Reyburn et al. and Null et al (Reyburn, Li et al. 2008, Null, Alvord et al. 2014), relevant portions incorporated herein by reference. All protocols have been adhered to APS/NIH guidelines for animal research and have been approved by the Institution Animal Care and Use Committees (IACUC) at the University of Utah. Lung injury in PT neonates, including PT lambs, that are mechanically ventilated (MV) is the classical picture of alveolar simplification. Alveolar simplification is evident as distended terminal respiratory units that have few secondary septa and thick, cellular mesenchyme.
The micrographs show terminal respiratory units (TRU) of the lung at the same magnification. […] Radial alveolar count is the number of tissue intersections across a terminal respiratory unit, from the center of the respiratory bronchiole to the perimeter of the terminal respiratory unit.

Structure (SMILES): CC(=O)N[C@@H]1C(Oc2ccc([N+](=O)[O-])cc2)OC(CO)C(O)C1O (stereo partly shown) [AVR-48]
- toxic effects in the visceral organs (mice or rat pups; high dose of 100 mg/kg): did not have any toxic effects
- hematological or clinical chemistry parameters (mice or rat pups; in vivo): no change
- therapeutic index (mice or rat pups; juvenile mouse, minimum efficacious dose 5 mg/kg/day vs NOAEL 100 mg/kg/day): 20 fold
- systemic gross observations at necropsy in the visceral organs (mice or rat pups; mouse and rat pups): no evidence of any AVR-48 related systemic gross observations
- white blood cell count, lymphocyte count (females only), total bilirubin (SC groups only) (mice or rat pups; treated animals, considered non-adverse, not dose dependent): slight decrease
- injection site findings (mice or rat pups; twice daily IV at 50 mg/kg/dose vs vehicle IV): higher incidence of dermal/subcutaneous hemorrhage at the injection site
- tolerability of all doses (mice or rat pups; two doses/day >6 h apart, up to 100 mg/kg/day IV, up to 150 mg/kg/day SC, 3 consecutive days, P3-P5 pups): well tolerated
- adverse clinical signs and body weight (mice or rat pups; up to 100 mg/kg/day IV, up to 150 mg/kg/day SC, 3 days): no observed adverse clinical signs and or any change in body weight
- MTD at 3 days ([1]; iv): 100 mg/kg/day
- NOAEL at 3 days ([1]; iv): 100 mg/kg/day
- MTD at 3 days ([1]; sc): 150 mg/kg/day
- NOAEL at 3 days ([1]; sc): 150 mg/kg/day
- inflammation in room air animals ([2]; RA+AVR-48 treated group): increased inflammation
- IL-1β ([2]; lung homogenates, vs BPD): marked decrease
- IL-13 ([2]; lung homogenates, vs BPD): marked decrease
- TNFα ([2]; lung homogenates, vs BPD): marked decrease
- nuclear factor kappa B (NFkB) ([2]; lung homogenates, vs BPD): marked decrease
- Angiopoetin 2 (Ang2) ([2]; lung, vs BPD): significantly decreased
- Vegf-D protein ([2]; lung, vs BPD): decreases
- IL-10 ([2]; lung, vs BPD group): increased
- Total vascular endothelial growth factor (Vegf) ([2]; lung, vs BPD group): increased considerably
- bone morphometric protein receptor (BmpR)II ([2]; lung, vs BPD group): significantly decreased
- endothelial nitric oxide synthase (eNOS) ([2]; lung, vs BPD group): significantly decreased
- IL-4 ([2]; lungs, vs BPD group): decrease
- TGFβ ([2]; lungs, vs BPD group): decrease
- TLR4 expression in the lungs ([2]; whole lung homogenates, after treatment): increase in the expression of TLR4
- radial alveolar count / alveoli formation (pre-term lamb BPD model; 3.0 mg/Kg, preliminary results): promotes alveoli formation
- alveolar simplification (lung histopathology) (pre-term lamb BPD model; vs vehicle treated PT lamb): significantly improved
